Assay results as given in US11053216B2, “Compounds and methods of use” (Medivation Technologies LLC, priority 2014, dated 2021).

Columns and labels:
[1] = Pharmacokinetics and bioavailability in male mice after a single dose; format: in vivo
[2] = Plasma and brain concentrations at 0.5 and 1 h; format: in vivo, mice
[3] = biological target: ALK3 (BMPR1A) (Homo sapiens (Human), UniProt P36894); test: In vitro kinase assay (33P ATP, 10 μM ATP); format: biochemical; conditions: read-out: Inhibition of ALK3 (IC50 μM)
Chain of ALK3 (BMPR1A) (P36894 24-532): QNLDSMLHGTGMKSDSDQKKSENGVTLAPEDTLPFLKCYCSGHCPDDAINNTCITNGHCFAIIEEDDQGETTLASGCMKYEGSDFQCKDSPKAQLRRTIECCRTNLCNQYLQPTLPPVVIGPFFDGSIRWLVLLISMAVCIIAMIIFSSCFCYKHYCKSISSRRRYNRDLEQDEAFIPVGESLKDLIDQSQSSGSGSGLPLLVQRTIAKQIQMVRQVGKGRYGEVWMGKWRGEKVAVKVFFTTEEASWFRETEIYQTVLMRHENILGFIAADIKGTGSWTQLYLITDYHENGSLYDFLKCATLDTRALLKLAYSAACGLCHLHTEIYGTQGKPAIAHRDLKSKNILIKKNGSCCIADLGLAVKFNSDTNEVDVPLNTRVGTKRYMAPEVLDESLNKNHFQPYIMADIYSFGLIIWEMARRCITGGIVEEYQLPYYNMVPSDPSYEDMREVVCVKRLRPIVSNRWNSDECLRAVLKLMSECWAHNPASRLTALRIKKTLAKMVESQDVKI

| Cmax ([1]; oral, 10 mg/kg) | Brain concentration ([2]; IV 2 mg/kg, 0.5 h) | Plasma concentration ([2]; IV 2 mg/kg, 0.5 h) | Brain concentration ([2]; IV 2 mg/kg, 1 h) | Plasma concentration ([2]; IV 2 mg/kg, 1 h) | Brain concentration ([2]; PO 10 mg/kg, 0.5 h) | Plasma concentration ([2]; PO 10 mg/kg, 0.5 h) | Brain concentration ([2]; PO 10 mg/kg, 1 h) | Plasma concentration ([2]; PO 10 mg/kg, 1 h) | Structure (SMILES) | other results |
| --- | --- | --- | --- | --- | --- | --- | --- | --- | --- | --- |
| 3.48 µM | – | – | – | – | – | – | – | – | CCc1cnc(-c2cc(Cl)ccc2F)cc1Nc1ccncc1C(=O)NC[C@H](C)O (single isomer, unassigned) [11a] | – |
| – | – | – | – | – | – | – | – | – | CC(C)c1cnc(-c2cc(Cl)ccc2F)cc1Nc1ncncc1C(=O)NC[C@H](C)O (single isomer, unassigned) [12a] | Cmax ([1]; mouse, plasma, intravenous, 2 mg/kg): 7.15 µM |
| – | 73.2 ng/mL | 310 ng/mL | 82.4 ng/mL | 366 ng/mL | 202 ng/mL | 1570 ng/mL | 114 ng/mL | 905 ng/mL | CC(C)c1cnc(-c2cc(Cl)ccc2F)cc1Nc1ccncc1C(=O)NC[C@H](C)O [2a, (S)-4-[[2-(5-chloro-2-fluoro-phenyl)-5-isopropyl-4-pyridyl]amino]-N-(2-hydroxypropyl)pyridine-3-carboxamide] | – |
| – | 173 ng/mL | 432 ng/mL | 168 ng/mL | 365 ng/mL | 305 ng/mL | 1280 ng/mL | 406 ng/mL | 1250 ng/mL | C=C(C)c1cnc(-c2cc(Cl)ccc2F)cc1Nc1ccncc1C(=O)NC[C@H](C)O [3a, (S)-4-(2-(5-chloro-2-fluorophenyl)-5-(prop-1-en-2-yl)pyridin-4-ylamino)-N-(2-hydroxypropyl)pyridine-5-carboxamide] | – |
| 3.42 µM | – | – | – | – | – | – | – | – | C[C@H](O)CNC(=O)c1cnccc1Nc1cc(-c2cc(Cl)ccc2F)ncc1N(C)C [16a, (S)-4-(2-(5-chloro-2-fluorophenyl)-5-(dimethylamino)pyridin-4-ylamino)-N-(2-hydroxypropyl)nicotinamide] | – |
| – | – | – | – | – | – | – | – | – | Fc1ccc(Cl)cc1-c1cc(Nc2ccnc3[nH]ccc23)c(C2CC2)cn1 [compound 32, 2-(5-chloro-2-fluorophenyl)-5-cyclopropyl-N-{1H-pyrrolo[2,3-b]pyridin-4-yl}pyridin-4-amine] | IC50 [3]: 333 µM |
